This is an account of results in publication PMC8467595, “Protective Effects of Linearthin and Other Chalcone Derivatives from Aspalathus linearis (Rooibos) against UVB Induced Oxidative Stress and Toxicity in Human Skin Cells” (Plants, 2021).

Experiment [1] concerns HaCaT cells. In words: MTT cytotoxicity assay, pre-treatment 4 or 24 h with or without UVB irradiation. In kind it is cell-based. Conditions: Homo sapiens, read-out: IC50 (50% inhibition of viable cell number, MTT). The method, then: (§1) The human epidermal keratinocytes (HaCaT) and melanoma (SK-MEL-1) cells used in this study were cultured in Roswell Park Memorial Institute (RPMI) 1640 media supplemented with antibiotics (100 U/mL streptomycin, 100 U/mL penicillin) and fetal calf serum (FCS, 10%). Cells were maintained at 37 °C in a humidified atmosphere of 5% CO2.
(§2) For experiments, before exposure to UVB, the cells were conditioned with various concentrations of total extract and isolated compounds thereof for 4 or 24 h. These periods were selected based on the half-life of the compounds as well as previous studies. Exposure to UVB was done according to a previous study. Cells were seeded (3 × 10^4) in 96-well tissue culture microtitre plates. Cell culture media was aspirated and the cells were overlayed with PBS. The cells were exposed to UVB light (80 mJ/cm^2) without the plastic lid. A UVIlink UV Crosslinker (UVitek Ltd., Aberdeen, UK) was fitted with six 8 Watt UV tubes giving a wavelength of 302 nm (Vilber Lourmat, Collégien, France). Control plates were not exposed to UVB light.
(§3) The MTT assay has been extensively used for determining the cytoprotective effects of several phytochemicals. To monitor cell viability as a measure of metabolic activity the MTT assay was performed. The conditioned HaCat and SK-MEL-1 cells (15,000 cells per well in 96-well plates) were incubated for 2 h using 100 μL MTT solution (5 mg/mL) after PBS washing. The MTT formazan crystals were then solubilised by DMSO resuspension. The optical density of the formazan product was read at 570 nm wavelength with a reference wavelength of 690 nm. The half-maximal inhibitory concentration (IC50) was determined.

In experiment [2] the test system is SK-MEL-1 cells. The description is as above. The experiment is classed as cell-based. Conditions: Homo sapiens, read-out: IC50 (50% inhibition of viable cell number, MTT). The method, then:
as §1, §2, §3

Experiment [3] has as its system HaCaT cells. In words: ATP bioluminescent assay (Cell Titer-Glo). The experiment is classed as cell-based, human. To be noted: for ATP vs control cell levels: 24 h pre-exposure, UVB irradiated cells. As to the method:
as §2
The ATP bioluminescent assay was used to quantify cellular ATP. The Cell Titer-Glo® assay (Promega, Madison, WI, USA) was carried out according to the manufacturer’s instructions. Cells were seeded in a white microtitre plate (20,000 cells per well) to which the ATP Cell Titer-Glo® Reagent was added (50 μL). The plate was incubated for 30 min at room temperature (RT) in the dark. Luminescence was measured on a Multiskan Spectrum plate reader (Thermo Fisher Scientific, Waltham, MA, USA). Luminescence is proportional to ATP levels and expressed as relative light units (RLU).

Experiment [4] has as its system HaCaT cells. The experiment in a line: Caspase 3/7 activation (ApoTox-Glo Triplex Assay). Conditions: UVB irradiated cells. In kind it is cell-based, human. The method, then:
as §2
(§4) The ApoTox-Glo™ Triplex Assay (Promega) was used to assess cytotoxicity and apoptosis events in the same cell-based assay well according to the manufacturer’s instructions with no deviation from standard protocol. Both luminescence and fluorescence were detected using a plate reader.

For experiment [5], the system named is SK-MEL-1 cells. In words: Caspase 3/7 activation (ApoTox-Glo Triplex Assay). In kind it is cell-based, human. Conditions: SK-MEL-1, UVB irradiated cells. As to the method: as §2, §4
In experiment [6] the test system is HaCaT cells. In words: TBARS lipid peroxidation (MDA). In kind it is cell-based, human. To be noted: for MDA levels (lipid peroxidation): HaCaT. The method, then: as §2
(§5) The thiobarbituric acid reactive substances (TBARS) was used to quantify the levels of melondialdehyde (a marker of lipid peroxidation) in the supernatant of UVB irradiated and non-irradiated cells. The experiments were conducted as previously described. The optical density was measured at 532 nm with a reference wavelength of 600 nm using a plate reader. The mean optical density of five samples per treatment was calculated and divided by the absorption coefficient (156 mM^−1). Results were expressed as MDA concentration (μM). Reduced glutathione (GSH) was quantified using an in-house protocol with minor modifications. After the addition of reagents, the cells were lysed to allow quantification of GSH colourimetrically using a plate reader.

Experiment [7] deals with SK-MEL-1 cells. In words: ATP bioluminescent assay (Cell Titer-Glo). The experiment is classed as cell-based, human. To be noted: SK-MEL-1, 10 µg/mL, 24-h pre-treatment.
Protocol: For experiments, before exposure to UVB, the cells were conditioned with various concentrations of total extract and isolated compounds thereof for 4 or 24 h. These periods were selected based on the half-life of the compounds as well as previous studies [22, 32]. Exposure to UVB was done according to a previous study. Cells were seeded (3 × 10^4) in 96-well tissue culture microtitre plates. Cell culture media was aspirated and the cells were overlayed with PBS. The cells were exposed to UVB light (80 mJ/cm^2) without the plastic lid. A UVIlink UV Crosslinker (UVitek Ltd., Aberdeen, UK) was fitted with six 8 Watt UV tubes giving a wavelength of 302 nm (Vilber Lourmat, Collégien, France) [22]. Control plates were not exposed to UVB light. The ATP bioluminescent assay was used to quantify cellular ATP. The Cell Titer-Glo® assay (Promega, Madison, WI, USA) was carried out according to the manufacturer’s instructions. Cells were seeded in a white microtitre plate (20,000 cells per well) to which the ATP Cell Titer-Glo® Reagent was added (50 μL). The plate was incubated for 30 min at room temperature (RT) in the dark. Luminescence was measured on a Multiskan Spectrum plate reader (Thermo Fisher Scientific, Waltham, MA, USA). Luminescence is proportional to ATP levels and expressed as relative light units (RLU).
Experiment [8] relates to SK-MEL-1 cells. In words: TBARS lipid peroxidation (MDA). In kind it is cell-based, human. To be noted: SK-MEL-1, 24-h pre-treatment, after UVB exposure.
Protocol: For experiments, before exposure to UVB, the cells were conditioned with various concentrations of total extract and isolated compounds thereof for 4 or 24 h. […] Exposure to UVB was done according to a previous study. Cells were seeded (3 × 10^4) in 96-well tissue culture microtitre plates. Cell culture media was aspirated and the cells were overlayed with PBS. The cells were exposed to UVB light (80 mJ/cm^2) without the plastic lid. A UVIlink UV Crosslinker (UVitek Ltd., Aberdeen, UK) was fitted with six 8 Watt UV tubes giving a wavelength of 302 nm (Vilber Lourmat, Collégien, France) [22]. Control plates were not exposed to UVB light. The thiobarbituric acid reactive substances (TBARS) was used to quantify the levels of melondialdehyde (a marker of lipid peroxidation) in the supernatant of UVB irradiated and non-irradiated cells. The experiments were conducted as previously described [45]. The optical density was measured at 532 nm with a reference wavelength of 600 nm using a plate reader. The mean optical density of five samples per treatment was calculated and divided by the absorption coefficient (156 mM^−1). Results were expressed as MDA concentration (μM).
The test system of experiment [9] is HaCaT cells. The experiment in a line: Reduced glutathione (GSH) quantification. The experiment is classed as cell-based, human. The method, then: as §2, §5
For experiment [10], the system named is SK-MEL-1 cells. In words: Reduced glutathione (GSH) quantification. The experiment is classed as cell-based, human. Conditions: SK-MEL-1 pre-treated cells. As to the method:
as §2, §5

The mark [11] stands for this setting: light or radiation study, UVB irradiation after pre-treatment 4 h.
The mark [12] stands for this setting: light or radiation study, UVB irradiation after pre-treatment 24 h.
Where [13] appears, read: SK-MEL-1, SK-MEL-1, No UV, pre-treatment 4 h.
The mark [14] stands for this setting: SK-MEL-1, SK-MEL-1, No UV, pre-treatment 24 h.
Where [15] appears, read: SK-MEL-1, light or radiation study, SK-MEL-1, UVB irradiation after pre-treatment 4 h.
Setting [16] is: SK-MEL-1, light or radiation study, SK-MEL-1, UVB irradiation after pre-treatment 24 h.

Each structure is given as a SMILES string. ≈ marks a conversion by molar mass, not a printed value. Where two headings read alike, the source gives them in different places.

In the case of `O=C(CCc1ccc(O)c(O)c1)c1c(O)cc(O)c2c1OC1(C2)O[C@@H](CO)[C@H](O)[C@H]1O` (relative stereo) [Compound 1, linearthin], the IC50 was 117 mg/L (≈ 269 µM) with HaCaT cells [1] (No UV, pre-treatment 4 h); 105 mg/L (≈ 242 µM) with HaCaT cells [1] (No UV, pre-treatment 24 h); 266 mg/L (≈ 612 µM) in the experiment on HaCaT cells [1] (setting [11]); 282 mg/L (≈ 649 µM) with HaCaT cells [1] (setting [12]); 330 mg/L (≈ 759 µM) in the experiment on SK-MEL-1 cells [2] (setting [13]); 124 mg/L (≈ 285 µM) with SK-MEL-1 cells [2] (setting [14]). For the same compound, the results for the IC50 in the experiment on SK-MEL-1 cells [2] (setting [15]) and with SK-MEL-1 cells [2] (setting [16]) were 248 mg/L (≈ 572 µM) and 143 mg/L (≈ 328 µM), respectively. In addition, the “ATP vs control cell levels” value with HaCaT cells [3] is “maintain ATP above control cell levels”. Besides, the “caspase 3/7 activation” value with HaCaT cells [4] and with SK-MEL-1 cells [5] was “inhibited the activation of executioner caspases in a dose-dependent manner” each time. Further, in the experiment on HaCaT cells [6] (4-h pre-treatment, UVB exposed, vs cells with no isolate intervention), the “MDA levels (lipid peroxidation)” value is given as “only the lowest concentration reduced MDA significantly”. In addition, the “MDA formation by UVB vs cells not exposed to UVB” value in the experiment with HaCaT cells [6] (lowest concentration, 4-h pre-treatment, cell line not given) is listed as “circumvent MDA formation by UVB to below levels observed in cells not exposed to UVB”.
Consider `O=C(CCc1ccc(O)cc1)c1c(O)cc(O)c(C2OC(CO)C(O)C(O)C2O)c1O` (stereo not drawn) [Compound 3, nothofagin], for which the IC50 with HaCaT cells [1] (No UV, pre-treatment 4 h) was determined as 144 mg/L (≈ 330 µM); in the experiment with HaCaT cells [1] (No UV, pre-treatment 24 h) it was 123 mg/L (≈ 282 µM); in the experiment on HaCaT cells [1] (setting [11]), 196 mg/L (≈ 450 µM); in the experiment on HaCaT cells [1] (setting [12]), 164 mg/L (≈ 376 µM); in the experiment with SK-MEL-1 cells [2] (setting [13]), 208 mg/L (≈ 477 µM); in the experiment on SK-MEL-1 cells [2] (setting [14]), 210 mg/L (≈ 482 µM). For the same compound, the IC50 came to 119 mg/L (≈ 273 µM) in the experiment on SK-MEL-1 cells [2] (setting [15]) and 123 mg/L (≈ 282 µM) in the experiment on SK-MEL-1 cells [2] (setting [16]). For the same compound, in the experiment with HaCaT cells [3] (100 µg/mL), the “ATP in UVB irradiated vs non-irradiated cells” value was “increase ATP in UVB irradiated cells to above levels observed in non-irradiated cells”. The “ATP vs control cell levels” value with HaCaT cells [3] is reported as “maintain ATP above control cell levels”. Also, the “ATP in UVB irradiated vs non-UVB irradiated cells” value in the experiment with SK-MEL-1 cells [7] is recorded as “significantly increase ATP to above levels observed in non-UVB irradiated cells”. In addition, the “caspase 3/7 activation” value with HaCaT cells [4] and in the experiment with SK-MEL-1 cells [5] was “inhibited the activation of executioner caspases in a dose-dependent manner” in each case.
As for `O=C(CCc1ccc(O)c(O)c1)c1c(O)cc(O)c(C2OC(CO)C(O)C(O)C2O)c1O` (stereo not drawn) [Compound 2, aspalathin], the IC50 with HaCaT cells [1] (No UV, pre-treatment 4 h) amounted to 209 mg/L (≈ 462 µM); with HaCaT cells [1] (No UV, pre-treatment 24 h), 122 mg/L (≈ 270 µM); in the experiment with HaCaT cells [1] (setting [11]), 399 mg/L (≈ 882 µM); in the experiment with HaCaT cells [1] (setting [12]) it was 145 mg/L (≈ 321 µM); in the experiment with SK-MEL-1 cells [2] (setting [13]), 93.6 mg/L (≈ 207 µM); with SK-MEL-1 cells [2] (setting [14]), 66.4 mg/L (≈ 147 µM). The values for the IC50 in the experiment on SK-MEL-1 cells [2] (setting [15]) and in the experiment on SK-MEL-1 cells [2] (setting [16]) were 72.2 mg/L (≈ 160 µM) and 70 mg/L (≈ 155 µM), respectively. For the same compound, in the experiment with SK-MEL-1 cells [7], the “ATP in UVB irradiated vs non-UVB irradiated cells” value is listed as “significantly increase ATP to above levels observed in non-UVB irradiated cells”. Further, the “caspase 3/7 activation” value in the experiment with HaCaT cells [4] and in the experiment with SK-MEL-1 cells [5] was “inhibited the activation of executioner caspases in a dose-dependent manner” throughout. Besides, the “MDA levels (lipid peroxidation)” value with HaCaT cells [6] (24-h pre-treatment, after UVB exposure) was “significant (p < 0.05) reduction in MDA levels at all tested concentrations”; with SK-MEL-1 cells [8], “significant (p < 0.05) reduction in MDA levels at all tested concentrations”. For the same compound, in the experiment with HaCaT cells [9] (pre-treatment 4 h, UVB exposed and non-exposed cells), the GSH content result is “only active at the lowest concentration tested”. Also, the GSH levels entry with HaCaT cells [9] (pre-treatment 24 h) is given as “only active at the lowest concentration tested”. In addition, the “GSH levels, resistance to UVB irradiation” value in the experiment with SK-MEL-1 cells [10] is given as “improved GSH levels”.
